Experimental data as given in patent US20230212788A1, “NEW METHOD FOR AUTOMATED ON-DEMAND BIOMOLECULAR ARRAY SYNTHESIS” (TECHNISCHE UNIVERSITAT DRESDEN, priority 2020, published 2023).

Tests used:
[1] = tested on: L929 cells; assay: Adhesion of L929 cells to peptides synthesized as array; assay type: cell-based; conditions: array without removing the lipophilic group, FIG. 16
Source text: There were synthesized cell adhesive peptide RGDSP (SEQ ID NO: 180) and its mutant GGDSP (SEQ ID NO: 179) as array and investigated their effects on the adhesion to L929 cells. As the chitosan hydrogel coating provides a favorable surface for the adhesion of many types of cells, including L929 cells, the array has been synthesized without removing the lipophilic group. […] (FIG. 16) Therefore, the array technology can be used not only for protein-based high throughput screening, but also for developing novel biomaterials as well as cellular assays.

[2] = molecular target: T1, streptavidin (Streptomyces avidinii, UniProt P22629); assay: Ligand array probed by fluorescently labelled streptavidin; assay type: binding; conditions: FIG. 10
T1 sequence (P22629 25-183): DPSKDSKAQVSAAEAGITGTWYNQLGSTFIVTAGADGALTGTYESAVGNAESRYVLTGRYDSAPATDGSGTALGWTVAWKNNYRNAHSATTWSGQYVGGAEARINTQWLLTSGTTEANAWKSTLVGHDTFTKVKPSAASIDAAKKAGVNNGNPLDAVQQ
Source text: To increase the coupling yield, each coupling step was repeated two times. Same procedure was used in all amide bond formation reactions. After a capping step using 5% acetic anhydride/2% DIPEA, Fmoc was deprotected by immersing the glass slide in piperidine solution (DMF:ethanol 1:1). All amino groups not in the spotted area were acetylated in the first capping step. Therefore, no amide bond formation would be possible in these area in the following synthesis. The array was then probed by fluorescently labelled streptavidin or CypA (FIGS. 10 and 11). […] At this screening condition, the protein cannot distinguish between pM and low nM binders, while it can distinguish these two strong binders from the weaker µM binder iminobiotin.

[3] = molecular target: T1, streptavidin; conditions: order of magnitude only; cited from earlier work
[4] = molecular target: cyclophilin A (CypA) (Homo sapiens, UniProt P62937); conditions: array probed by fluorescently labelled CypA, FIG. 11
Sequence of cyclophilin A (CypA) (P62937 whole entry, species assumed): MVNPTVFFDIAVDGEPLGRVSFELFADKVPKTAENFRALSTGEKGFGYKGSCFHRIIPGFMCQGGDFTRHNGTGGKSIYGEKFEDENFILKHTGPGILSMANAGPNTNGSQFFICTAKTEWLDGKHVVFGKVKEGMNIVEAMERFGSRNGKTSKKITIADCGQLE

[5] = tested on: calcineurin; assay: Array incubated with fluorescently labelled calcineurin; assay type: binding; conditions: FIG. 13
Description: In order to probe protein-peptide interactions, a peptide was synthesized on the amphiphilic surface. The known calcineurin-binding peptide PVIVIT (SEQ ID NO: 13) and CsA1-COOH were synthesized on the surface. The glass slide was then incubated with fluorescently labelled calcineurin. […] Therefore, the on-demand peptide array synthesis technology can be used to investigate specific protein-peptide interaction.

Compound	adhesion to L929 cells [1]	Kd values / dissociation constant to streptavidin [3]	other results
RGDSP: cell adhesive peptide RGDSP	strong adhesion		
GGDSP: mutant of cell adhesive peptide RGDSP	poor adhesion		
N=C1N[C@H]2[C@H](CS[C@H]2CCCCC(=O)O)N1 [iminobiotin]		µM	fluorescent signal on spot [2]: much weaker than those of biotin and desthiobiotin
O=C(O)CCCC[C@@H]1SC[C@@H]2NC(=O)N[C@@H]21 [Biotin, biotin]			binding of CypA to spot [4]: not
PVIVIT: known calcineurin-binding peptide PVIVIT			binding of calcineurin to spot [5]: can bind specifically
C[C@@H]1NC(=O)N[C@@H]1CCCCCC(=O)O [desthiobiotin]		low nM	
